According to PubChem BioAssay (NCI):
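Protocol summary: plate cells (96-well), add compound at 5 concentrations, incubate 48 h, interpolate endpoints linearly. The concentration for 50% growth inhibition is given as GI50. TGI: total growth inhibition.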

How the values were obtained:
Assay in all cases: growth of human tumour cells (NCI), 48 h
NCI-H522 lung = tested on: NCI-H522 lung
CAKI-1 renal = tested on: CAKI-1 renal
RPMI-8226 leukemia = tested on: RPMI-8226 leukemia
UACC-62 melanoma = tested on: UACC-62 melanoma
RXF 393 renal = tested on: RXF 393 renal
PC-3 prostate = tested on: PC-3 prostate
TK-10 renal = tested on: TK-10 renal
SN12C renal = tested on: SN12C renal
EKVX NSCLC = tested on: EKVX NSCLC
HCT-116 colon = tested on: HCT-116 colon
A549 NSCLC = tested on: A549 NSCLC
MALME-3M melanoma = tested on: MALME-3M melanoma
SNB-19 CNS = tested on: SNB-19 CNS
OVCAR-8 ovarian = tested on: OVCAR-8 ovarian
HL-60(TB) leukemia = tested on: HL-60(TB) leukemia
UACC-257 melanoma = tested on: UACC-257 melanoma
SF-295 CNS = tested on: SF-295 CNS
HS 578T breast = tested on: HS 578T breast
786-0 renal = tested on: 786-0 renal
SR leukemia = tested on: SR leukemia
MCF7 breast = tested on: MCF7 breast
T-47D breast = tested on: T-47D breast
UO-31 renal = tested on: UO-31 renal
SK-MEL-5 melanoma = tested on: SK-MEL-5 melanoma
DU-145 prostate = tested on: DU-145 prostate
MDA-MB-435 = tested on: MDA-MB-435
SK-OV-3 ovarian = tested on: SK-OV-3 ovarian
NCI/ADR-RES ovarian = tested on: NCI/ADR-RES ovarian
NCI-H23 lung = tested on: NCI-H23 lung

## COC(=O)CCC1=C(C)/C(=C/c2[nH]c(-c3ccc[nH]3)cc2OC)N=C1C
NCI-H522 lung
  GI50: 413 nM
  TGI: 1780 nM
CAKI-1 renal
  GI50: 346 nM
  TGI: 3150 nM
RPMI-8226 leukemia
  GI50: 272 nM
  TGI: 1380 nM
UACC-62 melanoma
  GI50: 295 nM
  TGI: 894 nM
RXF 393 renal
  GI50: 352 nM
  TGI: 2070 nM
PC-3 prostate
  GI50: 564 nM
  TGI: 12000 nM
TK-10 renal
  GI50: 2340 nM
  TGI: 9220 nM
SN12C renal
  GI50: 2350 nM
  TGI: 18100 nM
EKVX NSCLC
  GI50: 1460 nM
  TGI: 10800 nM
HCT-116 colon
  GI50: 331 nM
  TGI: 1410 nM
A549 NSCLC
  GI50: 565 nM
  TGI: 6320 nM
MALME-3M melanoma
  GI50: 1140 nM
  TGI: 3270 nM
SNB-19 CNS
  GI50: 2020 nM
  TGI: 17500 nM
OVCAR-8 ovarian
  GI50: 390 nM
  TGI: 6690 nM
HL-60(TB) leukemia
  GI50: 414 nM
  TGI: 2380 nM
UACC-257 melanoma
  GI50: 871 nM
  TGI: 3970 nM
SF-295 CNS
  GI50: 833 nM
  TGI: 3640 nM
HS 578T breast
  GI50: 1040 nM
  TGI: 9010 nM
786-0 renal
  GI50: 653 nM
  TGI: 3720 nM
SR leukemia
  GI50: 317 nM
  TGI: 88700 nM
MCF7 breast
  GI50: 331 nM
  TGI: 1430 nM
T-47D breast
  GI50: 378 nM
  TGI: 1860 nM
UO-31 renal
  GI50: 556 nM
  TGI: 2920 nM
SK-MEL-5 melanoma
  GI50: 96.5 nM
  TGI: 248 nM
DU-145 prostate
  GI50: 2170 nM
  TGI: 15100 nM
MDA-MB-435
  GI50: 454 nM
  TGI: 2500 nM
SK-OV-3 ovarian
  GI50: 3930 nM
  TGI: 11600 nM
NCI/ADR-RES ovarian
  GI50: 434 nM
  TGI: 12300 nM
NCI-H23 lung
  GI50: 587 nM
  TGI: 3840 nM
